Experimental data published in article PMC6283615, “Anilinoquinoline based inhibitors of trypanosomatid proliferation” (PLoS Neglected Tropical Diseases, 2018).
Read-outs that look alike come from different tables or passages of the source.

Key:
[1] = test system: T. congolense IL3000; assay: In vitro drug sensitivity assay for T. congolense (72 h); format: cell-based; conditions: Trypanosoma congolense, IL3000 strain
Experimental: In vitro drug sensitivity assay for T. congolense (72 h): Compounds were tested in vitro for efficacy against the IL3000 T. congolense (drug sensitive) strain which was originally derived from the Trans Mara I strain, isolated from a bovine in 1966 in Kenya. […] Compounds were assayed in at least three separate, independent experiments and an 11-point dilution curve was used to determine the EC50 values. Bloodstream form trypanosomes were supported in HMI-9 medium containing 20% bovine serum and were incubated with test compounds for 69 h at 34°C in a humidified atmosphere containing 5% CO2. Thereafter, 10 μL of Resazurin dye (12.5 mg in 100 mL of phosphate-buffered saline, Sigma-Aldrich, Buchs, Switzerland) was added for an additional 3 h. Plates were read using a fluorescence plate reader (Spectramax, Gemini XS, Bucher Biotec, Basel, Switzerland) using an excitation wavelength of 536 nm and an emission wavelength of 588 nm.

[2] = test system: HepG2 cells; assay: Drug toxicity to HepG2 cells (MTT, 48 h); format: cell-based, human; conditions: tested concentration ranges based on compound solubility
How it was run: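 HepG2 cells plated overnight, then exposed 48 h to twelve 1.6-fold dilutions (57–10,000 ng/mL) in duplicate at 37° C, 5% CO2. MTT added for 1 h at room temperature; formazan dissolved in acidified isopropanol, absorbance read.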

[3] = test system: NIH/3T3 cells; assay: Drug toxicity to 3T3 cells (Alamar Blue, 96 h); format: cell-based
[4] = Human plasma protein binding; format: in vitro ADME; conditions: read-out: Human PPB (converted)
[5] = Plasma and brain pharmacokinetics after single i.p. dose; format: in vivo; conditions: 10 mg/kg i.p., female BALB/c mice; for Kp: female, BALB/c, brain/plasma, 10 mg/kg
Experimental: PK parameters were measured for both brain and plasma following a single intraperitoneal (i.p.) dose of 10 mg/kg (see Supplementary information, S5 and S6 Tables).
Table S5. Pharmacokinetic parameters of NEU-1060 (compound 14) in plasma and brain following a single intraperitoneal administration in female BALB/c mice (Dose:
Compound Dose Route Matrix Tmax Cmax AUClast AUCinf […]
*The density of brain homogenate was considered as 1 which is equivalent to plasma density (1); Brain conc. and exposure expressed as ng/g and hr.ng/g, respectively.
NC – not calculated due to improper elimination phase
Table S6. Brain to plasma exposure ratio of NEU-1060 (compound 14) after a single intraperitoneal administration in female BALB/c mice (Dose: 10 mg/kg)
Compound Dose Route Matrix Cmax Cmax AUClast Brain to plasma
(mg/kg) (ng/mL) ratio (hr*ng/mL) exposure ratio

[6] = test system: T. b. brucei (strain 427); assay: T. b. brucei proliferation assay (PrestoBlue, 48 h); format: cell-based, Trypanosoma brucei brucei; conditions: Trypanosoma brucei
How it was run: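 Viability read by PrestoBlue fluorescence (530/590 nm) after 4 h with reagent, following 48 h compound exposure at 37°C, 5% CO2. Parasites (strain 427, 2.5×10^3 per well, HMI-9 medium) received triplicate 1:2 serial dilutions starting at 50 μM.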

SMILES | EC50 [1] | HepG2 TC50 [2] | 3T3 TC50 [3] | fraction unbound [4] | Brain to plasma exposure ratio ([5]; AUClast based, listed as NEU-1060, 10 mg/kg) | AUClast ([5]; brain) | Kp ([5]; mouse, ip, AUClast based, read-out: Brain to plasma exposure ratio) | Kp ([5]; mouse, ip, brain to plasma, read-out: Cmax ratio) | Cmax ([5]; mouse, ip, brain) | Tmax ([5]; mouse, ip, brain) | AUC(0-t) ([5]; mouse, ip, plasma) | Cmax ([5]; mouse, ip, plasma) | Tmax ([5]; mouse, ip, plasma) | EC50 [6]
CN1CCN(c2ncc(-c3ccc4c(Nc5cnccn5)ccnc4c3)cn2)CC1 [Compound 22] | 50 nM | > 38000 nM | 34000 nM | – | – | – | – | – | – | – | – | – | – | –
CN1CCN(c2ncc(-c3ccc4c(Nc5ccc(OCc6cccc(F)c6)c(Cl)c5)ccnc4c3)cn2)CC1 [Compound 14] | 160 nM | – | – | < 0.01 | 7.43 | 3474.83 ng·h/g | 7.4 | 2.85 | 211 ng/g | 4 h | 468 ng·h/mL | 74 ng/mL | 0.25 h | 6 nM
